Assay results reported in PMC11062922 (Nature Chemical Biology, 2023).
pIC50: −log10 of the molar value. Read-outs that look alike come from different tables or passages of the source.

Columns and labels:
[1] = molecular target: T1, CSNK2A1 (CK2) (Homo sapiens, UniProt P68400); test: Kinobeads two-dose competition binding: CK2 (CSNK2A1)
T1 construct: endogenous in cells

[2] = molecular target: T2, CK2alpha1 (CSNK2A1) (Homo sapiens, UniProt P68400); test: Recombinant kinase activity assay (ProQinase, FlashPlate radiometric): CK2alpha1; type: biochemical; settings: Enzyme CK2alpha1; Highest Assay Concentration 1.00E-06 M; read-out: IC50
T2 construct: purchased ProQinase
Description: (§1) Kinase activity assays were performed by ProQinase. Dose-dependent activity inhibition of CDK1/cyclinB, CK2alpha1 and CK2alpha2 were measured using a FlashPlateTM-based radiometric assay at KM (ATP) of the respective kinase.

[3] = molecular target: T3, CK2alpha2 (CSNK2A2) (Homo sapiens, UniProt P19784); test: Recombinant kinase activity assay (ProQinase, FlashPlate radiometric): CK2alpha2; type: biochemical
T3 construct: purchased ProQinase
Description: as §1

[4] = molecular target: T4, CDK1/cyclinB (Homo sapiens, UniProt P06493); test: Recombinant kinase activity assay (ProQinase, FlashPlate radiometric): CDK1/cyclinB; type: biochemical; settings: Enzyme CDK1_CycB1; Highest Assay Concentration 1.00E-06 M
T4 construct: purchased ProQinase
Description: as §1

[5] = molecular target: CSNK2A2 (Homo sapiens, UniProt P19784); test: Kinobeads two-dose competition binding: CSNK2A2; set-up: to maximize the representation of endogenous proteins; endogenous in cells; settings: Kinobeads two-dose screen (binding); read-out: Kdapp CSNK2A2
Source text: Briefly, Kinobeads comprise seven broad-spectrum small molecule kinase inhibitors immobilized on Sepharose beads. […]. Compounds of interest are set to compete for target protein binding with Kinobeads in the lysate and the amount of a given protein bound to Kinobeads in the presence of a compound can be quantified relative to a dimethylsulfoxide (DMSO) vehicle control by label-free mass spectrometry. This assay measures the physical interaction of a compound with thousands of endogenous proteins in parallel and, when systematically increasing the concentration of competitor, enables the calculation of an apparent interaction constant ( Kdapp ) for each compound and protein.
Kinobeads pulldown experiments were performed as described previously[13],[14],[17] with minor modification. […] The protein concentration was adjusted to 5 mg ml^−1. Kinase inhibitors were spiked into 0.5 ml of cell lysate at final concentrations of 100 and 1,000 nM (or DMSO, 0.3, 1, 3, 10, 30, 100, 300 and 1,000 nM for full dose experiments). […] Lysates were incubated for 45 min at 4 °C. Subsequently, lysates were incubated with Kinobeads ε (17.5 µl of settled beads) for 30 min at 4 °C. To assess the degree of protein depletion from the lysates by Kinobeads, the flow through of the DMSO control was recovered for a pulldown of pulldown experiment where the lysate was incubated a second time with fresh Kinobeads. Beads were washed in three steps with buffer containing 0.4%, 0.2% and no IGEPAL. Bound proteins were reduced with 50 mM DTT in 8 M Urea, 40 mM Tris-HCl pH 7.4 for 30 min at room temperature. After alkylation with 55 mM chloroacetamide, the urea concentration was reduced to 1–2 M and proteins were digested with trypsin. Acidified peptides were desalted and concentrated using SepPak tC18 µEluation plates (Waters). Samples were frozen, dried by vacuum centrifugation and stored at −20 °C.
Each kinase inhibitor was processed together with all DMSO controls of the same plate. Additionally, each search was supplemented with five high quality DMSO controls for consistent peptide identification and protein grouping. The resultant file (proteinGroups.txt) was used for subsequent filtering, normalization, data visualization and target annotation that was automatically performed by a data processing pipeline built in house that used R (including the ‘drc’ and ‘heatmap’ packages). First, reverse hits, potential contaminants and not quantified proteins in the DMSO control samples were discarded. Protein raw and label-free quantification intensities were normalized to the median DMSO control intensity to obtain relative residual binding intensities for each protein group at every inhibitor concentration and standard deviations of the DMSO control intensity were calculated. IC50 values were estimated based on the following equation IC50=I×100−inhibition/inhibition where [I] is the inhibitor concentration that was used for IC50 calculation and ‘inhibition’ the relative residual binding intensity. […]. Estimated Kdapp values were then calculated by multiplying the estimated IC50 values with a protein-dependent correction factor that was limited to a maximum value of one. The correction factor accounts for the depletion of a target protein from the lysate by Kinobeads. The depletion can be measured by the ratio of the amount of protein captured in two consecutive pulldowns of the same DMSO control lysate. In this study, correction factors were determined in separate experiments using the same lysate mixture and the same bead batch. Correction factors were set to the median of all correction factors. Targets of kinase inhibitors were annotated using the previously published random forest classifier. A training data set was annotated manually. […]

## CONC1=NC(=O)/C(=C/c2ccc3ncccc3c2)S1 [RO4613269-000]
[1]; Kinobeads two-dose screen (binding), read-out: Kdapp CK2 (CSNK2A1)
  potency estimated from few doses: 0.058 µM
[1]; selectivity score from Kinobeads two-dose data
  CATDSCK2: 0.86
[2]
  pIC50: 6.94
[3]; Enzyme CK2alpha2, Highest Assay Concentration 1.00E-06 M, read-out: IC50
  pIC50: 7.19
[3]; recombinant kinase activity assay at KM (ATP), read-out: Activity IC50 CSNK2A2
  pIC50: 7.19
[4]
  pIC50: < 6.00
[5]
  potency estimated from few doses: 0.057 µM
